Measured values: ChEMBL document CHEMBL1177837, “5-Isopropylidene-3-ethyl rhodanine induce growth inhibition followed by apoptosis in leukemia cells” (Eur J Med Chem, 2010)
The source made the active and inactive calls.

Tests used:
Type in all cases: functional, cell-based
[1] = test system: CCRF-CEM; test: Cytotoxicity against human CEM cells assessed as LDH release after at 10 to 250 uM; conditions: TDE = time-dependent effect
[2] = test system: CCRF-CEM; test: Cytotoxicity against human CEM cells at 250 uM after 48 hrs by trypan blue exclusion assay
[3] = test system: CCRF-CEM; test: Cell cycle arrest in human CEM cells assessed as accumulation at G2 phase after 72 hrs by FACS
[4] = test system: CCRF-CEM; test: Cell cycle arrest in human CEM cells assessed as accumulation at S phase after 72 hrs by FACS
[5] = test system: CCRF-CEM; test: Cell cycle arrest in human CEM cells assessed as accumulation at G2/M phase after 72 hrs by FACS
[6] = test system: CCRF-CEM; test: Cytotoxicity against human CEM cells at 50 uM after 48 hrs by trypan blue exclusion assay
[7] = test system: CCRF-CEM; test: Cell cycle arrest in human CEM cells assessed as accumulation at G1 phase after 72 hrs by FACS
[8] = test system: CCRF-CEM; test: Cytotoxicity against human CEM cells at 100 uM after 48 hrs by trypan blue exclusion assay
[9] = test system: CCRF-CEM; test: Cell cycle arrest in human CEM cells assessed as accumulation at sub G1 phase after 72 hrs by FACS

Measured: Activity

CCN1C(=O)C(=C(C)C)SC1=S
active: [1] tde | [2] | [3] Dose-dependent effect | [4] Dose-dependent effect | [5] Dose-dependent effect | [6] | [7] Dose-dependent effect | [8] | [9] Dose-dependent effect
